PubChem BioAssay AID330 (DTP/NCI, 2004)
Several values for one entry are separate records, joined by “and”; a condition that tells them apart may be missing. Equal entries are not always repeated. Toxic doses and inconclusive results are not listed.

Tested on: P388 leukemia ip, CD2F1 mice, survival T/C
Experiment: NCI In Vivo Anticancer Drug Screen. Data for tumor model P388 Leukemia (intraperitoneal) in CD2F1 (CDF1) mice
Settings: endpoint: median survival time, higher = longer survival
Summary of the method: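 Mice carrying the transplanted tumor received test compound or vehicle. Survival was recorded in each group, and the value is the treated-group measurement divided by that of the vehicle-treated control group.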

OC(CCl)CN1CC[N+]2(CC1)CC[N+]1(CCN(CC(O)CCl)CC1)CC2 (stereo not drawn)
T/C (dose: 25.0 mg/kg/injection, schedule: Q01DX005 (ip), vehicle: water): 100 % of control | T/C (dose: 25.0 mg/kg/injection, schedule: Q01DX005 (iv), vehicle: water): 103 % of control | T/C (dose: 25.0 mg/kg/injection, schedule: Q01DX009 (sc), vehicle: water): 97 % of control | T/C (dose: 25.0 mg/kg/injection, schedule: Q03HX008 (ip), vehicle: water): 106 % of control | T/C (dose: 25.0 mg/kg/injection, schedule: Q03HX016 (ip), vehicle: water): 100 % of control | T/C (dose: 25.0 mg/kg/injection, schedule: Q03HX024 (ip), vehicle: water): 113 % of control | T/C (dose: 50.0 mg/kg/injection, schedule: Q01DX005 (ip), vehicle: water): 101 % of control and 92 % of control | T/C (dose: 50.0 mg/kg/injection, schedule: Q01DX005 (iv), vehicle: water): 102 % of control and 105 % of control | T/C (dose: 50.0 mg/kg/injection, schedule: Q01DX009 (ip), vehicle: water): 98 % of control | T/C (dose: 50.0 mg/kg/injection, schedule: Q01DX009 (sc), vehicle: water): 104 % of control | T/C (dose: 50.0 mg/kg/injection, schedule: Q03HX008 (ip), vehicle: water): 103 % of control | T/C (dose: 50.0 mg/kg/injection, schedule: Q03HX016 (ip), vehicle: water): 118 % of control | T/C (dose: 50.0 mg/kg/injection, schedule: Q03HX024 (ip), vehicle: water): 121 % of control | T/C (dose: 100.0 mg/kg/injection, schedule: Q01DX005 (ip), vehicle: water): 109 % of control and 98 % of control | T/C (dose: 100.0 mg/kg/injection, schedule: Q01DX005 (iv), vehicle: water): 100 % of control and 101 % of control | T/C (dose: 100.0 mg/kg/injection, schedule: Q01DX009 (ip), vehicle: water): 103 % of control | T/C (dose: 100.0 mg/kg/injection, schedule: Q01DX009 (oral), vehicle: water): 99 % of control | T/C (dose: 100.0 mg/kg/injection, schedule: Q01DX009 (sc), vehicle: water): 106 % of control | T/C (dose: 100.0 mg/kg/injection, schedule: Q03HX008 (ip), vehicle: water): 114 % of control | T/C (dose: 100.0 mg/kg/injection, schedule: Q03HX024 (ip), vehicle: water): 123 % of control | T/C (dose: 100.0 mg/kg/injection, schedule: Q04DX003 (ip), vehicle: water): 92 % of control | T/C (dose: 200.0 mg/kg/injection, schedule: Q01DX001 (ip), vehicle: water): 95 % of control | T/C (dose: 200.0 mg/kg/injection, schedule: Q01DX005 (ip), vehicle: water): 102 % of control and 115 % of control | T/C (dose: 200.0 mg/kg/injection, schedule: Q01DX005 (iv), vehicle: water): 109 % of control | T/C (dose: 200.0 mg/kg/injection, schedule: Q01DX009 (ip), vehicle: water): 117 % of control | T/C (dose: 200.0 mg/kg/injection, schedule: Q01DX009 (oral), vehicle: water): 101 % of control | T/C (dose: 200.0 mg/kg/injection, schedule: Q01DX009 (sc), vehicle: water): 114 % of control | T/C (dose: 200.0 mg/kg/injection, schedule: Q04DX003 (ip), vehicle: water): 99 % of control | T/C (dose: 200.0 mg/kg/injection, schedule: Q08DX002 (ip), vehicle: water): 95 % of control | T/C (dose: 400.0 mg/kg/injection, schedule: Q01DX001 (ip), vehicle: water): 96 % of control | T/C (dose: 400.0 mg/kg/injection, schedule: Q01DX005 (iv), vehicle: water): 109 % of control | T/C (dose: 400.0 mg/kg/injection, schedule: Q01DX009 (ip), vehicle: water): 111 % of control | T/C (dose: 400.0 mg/kg/injection, schedule: Q01DX009 (oral), vehicle: water): 101 % of control | T/C (dose: 400.0 mg/kg/injection, schedule: Q01DX009 (sc), vehicle: water): 107 % of control | T/C (dose: 400.0 mg/kg/injection, schedule: Q04DX003 (ip), vehicle: water): 106 % of control | T/C (dose: 400.0 mg/kg/injection, schedule: Q08DX002 (ip), vehicle: water): 104 % of control | T/C (dose: 800.0 mg/kg/injection, schedule: Q01DX001 (ip), vehicle: water): 100 % of control | T/C (dose: 800.0 mg/kg/injection, schedule: Q01DX009 (oral), vehicle: water): 92 % of control | T/C (dose: 800.0 mg/kg/injection, schedule: Q01DX009 (sc), vehicle: water): 92 % of control | T/C (dose: 800.0 mg/kg/injection, schedule: Q04DX003 (ip), vehicle: water): 118 % of control | T/C (dose: 800.0 mg/kg/injection, schedule: Q08DX002 (ip), vehicle: water): 113 % of control | T/C (dose: 1600.0 mg/kg/injection, schedule: Q01DX001 (ip), vehicle: water): 119 % of control | T/C (dose: 1600.0 mg/kg/injection, schedule: Q08DX002 (ip), vehicle: water): 120 % of control

COc1cc(Br)cc(C=O)c1OC
T/C (dose: 12.5 mg/kg/injection, schedule: Q01DX009 (ip), vehicle: other): 98 % of control | T/C (dose: 25.0 mg/kg/injection, schedule: Q01DX009 (ip), vehicle: other): 98 % of control | T/C (dose: 50.0 mg/kg/injection, schedule: Q01DX009 (ip), vehicle: other): 99 % of control | T/C (dose: 100.0 mg/kg/injection, schedule: Q01DX009 (ip), vehicle: other): 98 % of control | T/C (dose: 200.0 mg/kg/injection, schedule: Q01DX009 (ip), vehicle: other): 102 % of control | T/C (dose: 400.0 mg/kg/injection, schedule: Q01DX009 (ip), vehicle: other): 114 % of control

COc1cccc2c1C(=O)c1c(O)c3c(c(O)c1C2=O)C[C@@](O)(C(C)NCCCO)C[C@@H]3OC1CC(N)C(O)C(C)O1 (stereo partly drawn)
T/C (dose: 0.5 mg/kg/injection, schedule: Q01DX009 (ip), vehicle: water): 122 % of control | T/C (dose: 1.0 mg/kg/injection, schedule: Q01DX009 (ip), vehicle: water): 150 % of control | T/C (dose: 2.0 mg/kg/injection, schedule: Q01DX009 (ip), vehicle: water): 154 % of control and 163 % of control | T/C (dose: 4.0 mg/kg/injection, schedule: Q01DX009 (ip), vehicle: water): 163 % of control and 173 % of control | T/C (dose: 8.0 mg/kg/injection, schedule: Q01DX009 (ip), vehicle: water): 174 % of control and 175 % of control | T/C (dose: 16.0 mg/kg/injection, schedule: Q01DX009 (ip), vehicle: water): 201 % of control

CCOC(=O)C1=C(C)NC(C)=C(C(=O)OCC)C1c1ccccc1Cl
T/C (dose: 12.5 mg/kg/injection, schedule: Q01DX009 (ip), vehicle: saline): 100 % of control | T/C (dose: 25.0 mg/kg/injection, schedule: Q01DX009 (ip), vehicle: saline): 110 % of control | T/C (dose: 50.0 mg/kg/injection, schedule: Q01DX009 (ip), vehicle: saline): 120 % of control

Oc1ccc(Nc2ccc(N(CCCl)CCCl)cc2)c2ccccc12
T/C (dose: 6.25 mg/kg/injection, schedule: Q01DX001 (ip), vehicle: Klucel (hydroxypropylcellulose) (HPC)): 123 % of control | T/C (dose: 50.0 mg/kg/injection, schedule: Q01DX001 (ip), vehicle: Klucel (hydroxypropylcellulose) (HPC)): 192 % of control and 195 % of control

CCN(CC)c1ccc(NCS(=O)(=O)O)cc1
T/C (dose: 50.0 mg/kg/injection, schedule: Q04DX003 (ip), vehicle: saline sonified): 95 % of control | T/C (dose: 100.0 mg/kg/injection, schedule: Q04DX003 (ip), vehicle: saline sonified): 90 % of control | T/C (dose: 200.0 mg/kg/injection, schedule: Q04DX003 (ip), vehicle: saline sonified): 100 % of control
